Assay [1] addresses Dual specificity protein phosphatase 3 (Homo sapiens, UniProt P51452). The experiment in a line: VHR1 phosphatase inhibitors, primary screen, biochemical, absorbance, uHTS (AID 1654).
Assay [2] has as its target Dual specificity protein phosphatase 6 (Rattus norvegicus, UniProt Q64346). The experiment in a line: MKP-3 phosphatase inhibitors, primary screen, biochemical, rat enzyme, in vitro (AID 425).
Assay [3] addresses Dual specificity tyrosine-phosphorylation-regulated kinase 1A (Rattus norvegicus, UniProt Q63470). Format: biochemical, Homo sapiens.
The nature of assay [4]: HEK293 cell cytotoxicity, dose response, cytotoxicity control, plate reader, cherry-picked samples (AID 743446). Format: functional, cell-based.
Assay [5] concerns the target Serine/threonine-protein phosphatase PP1-alpha catalytic subunit (Homo sapiens, UniProt P62136). The experiment in a line: PP1 phosphatase inhibitors, dose response, biochemical, fluorescence (AID 2394).
Assay [6] addresses T1, Serine/threonine-protein phosphatase (Homo sapiens, UniProt Q9BPW0).
T1 sequence (Q9BPW0 whole entry): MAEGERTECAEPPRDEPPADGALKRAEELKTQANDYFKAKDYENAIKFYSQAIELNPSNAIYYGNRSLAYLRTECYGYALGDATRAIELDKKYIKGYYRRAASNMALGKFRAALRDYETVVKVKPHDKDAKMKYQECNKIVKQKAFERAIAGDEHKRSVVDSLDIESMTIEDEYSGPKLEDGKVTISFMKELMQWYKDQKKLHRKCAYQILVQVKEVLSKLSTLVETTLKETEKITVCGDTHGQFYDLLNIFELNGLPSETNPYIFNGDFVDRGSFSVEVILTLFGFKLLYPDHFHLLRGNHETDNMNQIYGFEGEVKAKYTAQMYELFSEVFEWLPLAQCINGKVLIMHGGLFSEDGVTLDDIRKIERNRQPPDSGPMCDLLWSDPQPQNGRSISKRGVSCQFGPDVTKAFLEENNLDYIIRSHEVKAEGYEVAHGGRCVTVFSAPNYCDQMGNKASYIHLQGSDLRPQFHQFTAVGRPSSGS
As to the kind of experiment: PP5 phosphatase inhibitors, dose response, biochemical, fluorescence (AID 2395).

In assay [7] the target is T2, Sentrin-specific protease 8 (Homo sapiens, UniProt Q96LD8).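 Further: luminescence read-out of SENP8 inhibition, dose-response confirmation following an ultra-high-throughput screen.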
T2 sequence (Q96LD8 whole entry): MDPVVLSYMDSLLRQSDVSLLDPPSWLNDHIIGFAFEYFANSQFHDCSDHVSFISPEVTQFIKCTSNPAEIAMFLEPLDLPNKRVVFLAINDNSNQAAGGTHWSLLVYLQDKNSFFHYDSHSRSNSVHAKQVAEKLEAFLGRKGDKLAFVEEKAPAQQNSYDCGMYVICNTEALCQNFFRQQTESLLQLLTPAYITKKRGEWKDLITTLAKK
Format: functional.

Assay [8] concerns the target cGMP-dependent protein kinase 1 (Homo sapiens, UniProt Q13976). Format: functional.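 Further: value from a kinome panel screen with PRKG1 as the panel member.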
Assay [9] addresses 5'-AMP-activated protein kinase catalytic subunit alpha-1 (Homo sapiens, UniProt Q13131). Format: functional.
Assay [10] concerns the target Serine/threonine-protein kinase PLK4 (Homo sapiens, UniProt O00444). Format: functional.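 Further: PLK4 measured as one member of a kinome-wide kinase profiling panel.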
For assay [11], the target named is Eukaryotic elongation factor 2 kinase (Homo sapiens, UniProt O00418). Format: functional.
For assay [12], the target named is Serine/threonine-protein kinase Chk2 (Homo sapiens, UniProt O96017). Format: functional.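 Further: CHEK2 entry within a kinome-wide screening panel.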
Assay [13] has as its target Serine/threonine-protein kinase pim-1 (Homo sapiens, UniProt P11309). Format: functional.
The target in the next assay is Aurora kinase A (Homo sapiens, UniProt O14965). Format: functional.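 Further: value from the Navigating the Kinome kinase panel profiling, panel entry STK6.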
In assay [14] the target is Serine/threonine-protein kinase PAK 4 (Homo sapiens, UniProt O96013). Format: functional.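 Further: value obtained within a kinome profiling panel in which PAK4 was one of the panel members.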
In assay [15] the target is Tyrosine-protein kinase Lyn (Homo sapiens, UniProt P07948). Format: functional.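 Further: lyn as one member of a kinase panel.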
For assay [16], the target named is Testis-specific serine/threonine-protein kinase 1 (Homo sapiens, UniProt Q9BXA7). Format: functional.
In assay [17] the target is Non-receptor tyrosine-protein kinase TYK2 (Homo sapiens, UniProt P29597). Format: functional.
Assay [18] addresses Protein kinase C gamma type (Homo sapiens, UniProt P05129). Format: functional.
The target of assay [19] is Receptor tyrosine-protein kinase erbB-2 (Homo sapiens, UniProt P04626). The experiment in a line: Navigating the Kinome. Panel member name: ERBB2. Format: functional.
For assay [20], the target named is Tyrosine-protein kinase ABL1 (Homo sapiens, UniProt P00519). Format: functional.
Assay [21] deals with Maternal embryonic leucine zipper kinase (Homo sapiens, UniProt Q14680). Format: functional.
Assay [22] concerns the target Mitogen-activated protein kinase kinase kinase kinase 5 (Homo sapiens, UniProt Q9Y4K4). Format: functional.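 Further: measured as one member of a kinome-spanning kinase panel.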
The target of assay [23] is Cyclin-dependent kinase 19 (Homo sapiens, UniProt Q9BWU1). The experiment in a line: Navigating the Kinome. Panel member name: CDC2L6. Format: functional.
In assay [24] the target is Cyclin-dependent kinase 1 (Homo sapiens, UniProt P06493). Format: functional.
Assay [25] deals with Fibroblast growth factor receptor 3 (Homo sapiens, UniProt P22607). Format: functional.
Assay [26] has as its target Mitogen-activated protein kinase 12 (Homo sapiens, UniProt P53778). Format: functional.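 Further: measured as one member of a kinome-wide kinase profiling panel.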

The source made the active and inactive calls. Bounds are passed on as bounds.

Serine/threonine-protein phosphatase PP1-alpha catalytic subunit, sequence (P62136 whole entry): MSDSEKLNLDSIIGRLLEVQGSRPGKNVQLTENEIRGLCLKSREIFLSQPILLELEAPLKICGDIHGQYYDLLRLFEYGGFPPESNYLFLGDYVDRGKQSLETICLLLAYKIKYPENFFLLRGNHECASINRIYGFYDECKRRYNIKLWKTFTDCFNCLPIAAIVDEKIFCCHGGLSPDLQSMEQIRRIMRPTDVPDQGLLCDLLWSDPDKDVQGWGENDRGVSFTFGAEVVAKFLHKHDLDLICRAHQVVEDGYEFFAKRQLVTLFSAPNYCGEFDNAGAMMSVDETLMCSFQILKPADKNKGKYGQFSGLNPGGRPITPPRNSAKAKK
Testis-specific serine/threonine-protein kinase 1, sequence (Q9BXA7 whole entry): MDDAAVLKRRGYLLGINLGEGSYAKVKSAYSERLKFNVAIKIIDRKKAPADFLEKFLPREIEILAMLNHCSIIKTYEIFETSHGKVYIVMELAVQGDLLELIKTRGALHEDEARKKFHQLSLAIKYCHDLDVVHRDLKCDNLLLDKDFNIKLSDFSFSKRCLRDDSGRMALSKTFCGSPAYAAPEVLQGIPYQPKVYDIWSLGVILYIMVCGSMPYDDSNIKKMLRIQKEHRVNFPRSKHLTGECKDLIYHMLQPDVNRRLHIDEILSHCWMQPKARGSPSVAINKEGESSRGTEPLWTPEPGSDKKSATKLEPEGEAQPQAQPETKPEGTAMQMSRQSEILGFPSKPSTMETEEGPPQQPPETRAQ
Cyclin-dependent kinase 19, sequence (Q9BWU1 whole entry): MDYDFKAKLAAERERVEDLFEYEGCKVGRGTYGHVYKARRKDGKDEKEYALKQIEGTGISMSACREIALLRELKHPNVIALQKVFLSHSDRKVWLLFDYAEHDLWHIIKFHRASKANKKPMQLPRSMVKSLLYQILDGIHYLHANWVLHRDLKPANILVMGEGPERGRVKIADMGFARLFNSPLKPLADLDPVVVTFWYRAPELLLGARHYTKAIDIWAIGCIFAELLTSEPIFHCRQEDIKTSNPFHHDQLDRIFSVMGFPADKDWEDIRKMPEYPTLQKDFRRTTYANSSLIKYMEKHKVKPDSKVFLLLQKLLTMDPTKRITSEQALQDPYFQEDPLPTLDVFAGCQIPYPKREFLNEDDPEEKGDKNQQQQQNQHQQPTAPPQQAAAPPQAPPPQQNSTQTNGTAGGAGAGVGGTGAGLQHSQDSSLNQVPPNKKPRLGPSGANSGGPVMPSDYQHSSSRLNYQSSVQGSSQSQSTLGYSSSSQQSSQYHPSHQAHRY
Non-receptor tyrosine-protein kinase TYK2, sequence (P29597 whole entry): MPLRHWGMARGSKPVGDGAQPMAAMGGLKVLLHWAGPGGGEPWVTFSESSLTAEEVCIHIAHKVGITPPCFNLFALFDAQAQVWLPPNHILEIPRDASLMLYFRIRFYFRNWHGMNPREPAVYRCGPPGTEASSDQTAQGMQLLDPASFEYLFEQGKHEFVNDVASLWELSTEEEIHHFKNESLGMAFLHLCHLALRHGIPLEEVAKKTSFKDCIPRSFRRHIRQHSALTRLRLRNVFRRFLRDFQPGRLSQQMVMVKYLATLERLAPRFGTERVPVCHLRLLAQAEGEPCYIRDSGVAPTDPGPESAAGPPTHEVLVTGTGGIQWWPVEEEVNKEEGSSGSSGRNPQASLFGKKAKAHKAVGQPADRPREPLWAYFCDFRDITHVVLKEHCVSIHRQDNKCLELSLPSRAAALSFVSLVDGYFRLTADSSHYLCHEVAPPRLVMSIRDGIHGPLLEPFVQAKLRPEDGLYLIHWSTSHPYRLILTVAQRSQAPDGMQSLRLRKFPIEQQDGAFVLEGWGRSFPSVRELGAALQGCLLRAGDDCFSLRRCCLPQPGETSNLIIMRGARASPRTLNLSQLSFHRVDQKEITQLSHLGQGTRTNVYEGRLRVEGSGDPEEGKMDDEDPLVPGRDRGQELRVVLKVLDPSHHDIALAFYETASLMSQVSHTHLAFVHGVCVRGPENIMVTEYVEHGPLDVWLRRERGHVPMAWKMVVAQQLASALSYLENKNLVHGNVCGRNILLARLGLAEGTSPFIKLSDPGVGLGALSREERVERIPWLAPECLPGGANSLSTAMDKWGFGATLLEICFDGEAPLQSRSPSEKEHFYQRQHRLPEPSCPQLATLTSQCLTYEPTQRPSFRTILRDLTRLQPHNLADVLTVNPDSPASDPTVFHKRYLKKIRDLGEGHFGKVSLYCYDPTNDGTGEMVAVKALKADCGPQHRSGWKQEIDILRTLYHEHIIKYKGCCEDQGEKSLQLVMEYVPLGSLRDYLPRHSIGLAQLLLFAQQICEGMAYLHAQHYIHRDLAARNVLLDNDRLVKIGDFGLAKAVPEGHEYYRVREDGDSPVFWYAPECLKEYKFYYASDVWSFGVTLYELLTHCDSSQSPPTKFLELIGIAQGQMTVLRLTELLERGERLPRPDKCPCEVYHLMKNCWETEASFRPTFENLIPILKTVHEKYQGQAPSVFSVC
Aurora kinase A, sequence (O14965 whole entry): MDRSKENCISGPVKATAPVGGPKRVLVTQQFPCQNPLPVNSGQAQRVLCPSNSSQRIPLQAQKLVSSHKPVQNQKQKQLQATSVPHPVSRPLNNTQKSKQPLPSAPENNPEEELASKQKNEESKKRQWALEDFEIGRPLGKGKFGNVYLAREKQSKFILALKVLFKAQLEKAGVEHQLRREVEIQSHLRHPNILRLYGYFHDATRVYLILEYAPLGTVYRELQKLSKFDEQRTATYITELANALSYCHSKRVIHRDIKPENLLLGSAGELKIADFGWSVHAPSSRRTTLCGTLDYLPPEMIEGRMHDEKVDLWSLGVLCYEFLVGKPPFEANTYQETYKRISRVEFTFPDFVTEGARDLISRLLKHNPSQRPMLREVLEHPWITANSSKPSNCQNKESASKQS
Cyclin-dependent kinase 1, sequence (P06493 whole entry): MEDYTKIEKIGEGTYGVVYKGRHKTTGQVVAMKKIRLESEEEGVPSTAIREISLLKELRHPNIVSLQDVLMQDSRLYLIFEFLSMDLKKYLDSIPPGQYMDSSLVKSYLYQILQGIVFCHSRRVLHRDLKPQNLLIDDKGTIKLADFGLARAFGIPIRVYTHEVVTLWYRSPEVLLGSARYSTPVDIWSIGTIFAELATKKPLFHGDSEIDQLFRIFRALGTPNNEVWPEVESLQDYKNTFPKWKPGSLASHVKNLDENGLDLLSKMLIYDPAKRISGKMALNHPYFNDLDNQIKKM
Dual specificity protein phosphatase 6, sequence (Q64346 whole entry): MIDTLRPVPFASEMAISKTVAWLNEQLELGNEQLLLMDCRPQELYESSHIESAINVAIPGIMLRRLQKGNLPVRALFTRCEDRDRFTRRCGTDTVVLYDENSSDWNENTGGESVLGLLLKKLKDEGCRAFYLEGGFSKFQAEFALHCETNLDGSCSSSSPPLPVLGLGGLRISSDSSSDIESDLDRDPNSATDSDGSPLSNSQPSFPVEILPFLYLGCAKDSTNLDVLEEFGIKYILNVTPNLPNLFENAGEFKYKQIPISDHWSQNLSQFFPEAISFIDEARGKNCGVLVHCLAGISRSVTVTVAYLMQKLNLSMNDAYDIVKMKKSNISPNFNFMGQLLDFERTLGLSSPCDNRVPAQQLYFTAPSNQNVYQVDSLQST
Dual specificity protein phosphatase 3, sequence (P51452 whole entry): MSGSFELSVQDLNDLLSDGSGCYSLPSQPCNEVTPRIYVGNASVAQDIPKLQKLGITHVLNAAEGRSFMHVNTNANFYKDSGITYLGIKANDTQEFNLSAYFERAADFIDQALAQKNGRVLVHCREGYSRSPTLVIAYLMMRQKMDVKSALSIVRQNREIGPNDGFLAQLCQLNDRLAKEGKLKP
Fibroblast growth factor receptor 3, sequence (P22607 whole entry): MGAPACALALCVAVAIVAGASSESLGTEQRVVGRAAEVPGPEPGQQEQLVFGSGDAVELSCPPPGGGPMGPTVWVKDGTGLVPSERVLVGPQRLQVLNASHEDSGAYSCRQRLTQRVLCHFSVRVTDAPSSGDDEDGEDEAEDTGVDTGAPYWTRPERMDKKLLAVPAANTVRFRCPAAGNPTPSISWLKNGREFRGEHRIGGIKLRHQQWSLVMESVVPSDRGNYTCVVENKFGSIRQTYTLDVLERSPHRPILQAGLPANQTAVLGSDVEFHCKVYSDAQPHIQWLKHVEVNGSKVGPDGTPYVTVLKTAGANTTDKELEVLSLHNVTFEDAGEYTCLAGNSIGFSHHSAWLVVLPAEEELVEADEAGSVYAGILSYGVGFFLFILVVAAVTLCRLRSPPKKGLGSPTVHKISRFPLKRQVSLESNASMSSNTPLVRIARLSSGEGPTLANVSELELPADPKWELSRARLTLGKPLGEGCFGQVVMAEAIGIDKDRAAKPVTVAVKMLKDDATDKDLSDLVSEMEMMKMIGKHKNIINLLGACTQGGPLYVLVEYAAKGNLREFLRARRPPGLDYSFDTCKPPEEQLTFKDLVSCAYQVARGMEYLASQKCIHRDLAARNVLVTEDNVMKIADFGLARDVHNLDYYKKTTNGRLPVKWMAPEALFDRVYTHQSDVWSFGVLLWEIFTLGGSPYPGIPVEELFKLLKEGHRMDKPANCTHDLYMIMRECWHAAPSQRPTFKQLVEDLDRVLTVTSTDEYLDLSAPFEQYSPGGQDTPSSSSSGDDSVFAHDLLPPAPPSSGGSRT
Serine/threonine-protein kinase pim-1, sequence (P11309 whole entry): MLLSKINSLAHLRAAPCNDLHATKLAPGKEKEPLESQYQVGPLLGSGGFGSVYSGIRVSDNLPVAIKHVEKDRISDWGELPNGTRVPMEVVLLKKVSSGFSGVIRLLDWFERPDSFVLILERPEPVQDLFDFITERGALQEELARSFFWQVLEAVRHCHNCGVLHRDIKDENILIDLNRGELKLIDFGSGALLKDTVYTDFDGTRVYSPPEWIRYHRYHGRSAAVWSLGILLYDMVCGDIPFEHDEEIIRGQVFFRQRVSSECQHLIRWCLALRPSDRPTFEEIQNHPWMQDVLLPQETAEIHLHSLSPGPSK

Usually IC50 stands for the concentration that gives 50% inhibition. The AC50 is the concentration at which the activity in the assay is half-maximal. As to `CCCc1nc2c(=O)n(C)c(=O)nc-2n(C)n1`, the IC50 was < 0.98 µM (inactive) in assay [1] and < 1.23 µM (not active) in [2]. Further, the AC50 in assay [3] was 0.249 µM (active); in assay [4], 27.1 µM (active).
With `CC(=O)c1ccc(NC2=C(N3CCOCC3)C(=O)c3ccccc3C2=O)cc1`, the IC50 in assay [5] is > 67 µM (not active); in [6], 19.3 µM (not active); in [7], 18.8 µM (active).
By Ki is commonly meant a measure of affinity in units of concentration, obtained from inhibition or displacement. With `COc1cc2ncn(-c3cc(OCc4ccccc4C(F)(F)F)c(C(N)=O)s3)c2cc1OC` [GW843682X], the Ki in assay [8] is 0.316 µM (active); in assay [9], > 5.01 µM (inactive); in assay [10], 0.2 µM (active); in assay [11], > 3.98 µM (inactive); in assay [12], > 5.01 µM (inactive); in assay [13] it was > 10 µM (inactive). Also, the Ki at Aurora kinase A is > 3.98 µM (inactive); in [14], > 5.01 µM (inactive); in assay [15], > 1.58 µM (inactive); in assay [16], 0.2 µM (active); in [17] it was > 2 µM (inactive); in [18], > 7.94 µM (inactive). Further, the Ki is 1 µM (active) in assay [19]; > 0.631 µM (inactive) in assay [20]; 0.158 µM (active) in [21]; 0.2 µM (active) in assay [22]; > 100 µM (inactive) in assay [23]; > 7.94 µM (inactive) in assay [24]. The Ki in assay [25] was > 2 µM (inactive); in assay [26], > 6.31 µM (inactive).

The record behind these values is ChEMBL document CHEMBL1201862, “PubChem BioAssay data set” (2004).
